Measured values: patent US10548317B2, “Pesticidally active pyrazole derivatives” (SYNGENTA PARTICIPATIONS AG, priority 2015, dated 2020)

Tests used:
Spodoptera littoralis = Spodoptera littoralis (Egyptian cotton leaf worm) leaf disc spray test; type: in vivo; settings: foliar, 72 h, application rate of 200 ppm, cotton leaf discs, L1 larvae, 3 days after infestation, read-out: control (at least one of mortality, anti-feedant effect, growth inhibition)
Protocol: Spodoptera littoralis (Egyptian Cotton Leaf Worm)
Cotton leaf discs were placed on agar in 24-well microtiter plates and sprayed with aqueous test solutions prepared from 10'000 ppm DMSO stock solutions. After drying the leaf discs were infested with five L1 larvae. The samples were assessed for mortality, anti-feedant effect, and growth inhibition in comparison to untreated samples 3 days after infestation. Control of Spodoptera littoralis by a test sample is when at least one of mortality, anti-feedant effect, and growth inhibition is higher than the untreated sample.

Plutella xylostella = Plutella xylostella (diamond back moth) artificial diet test; type: in vivo; settings: 120 h, application rate of 200 ppm, L2 larvae, 5 days after infestation, read-out: effect in at least one of the two categories (mortality or growth inhibition)
Protocol: Plutella xylostella (Diamond Back Moth):
24-well microtiter plates with artificial diet were treated with aqueous test solutions prepared from 10'000 ppm DMSO stock solutions by pipetting. After drying, the plates were infested with L2 larvae (10 to 15 per well). The samples were assessed for mortality and growth inhibition in comparison to untreated samples 5 days after infestation. The following compounds gave an effect of at least 80% in at least one of the two categories (mortality or growth inhibition) at an application rate of 200 ppm: 1, 2, 3, 4, 5, 6, 7, 8, 9, 10, 11, 12, 13, 14, 15, 16, 17, 18, 19, 20, 21, 22, 23, 24, 25, 26, 27, 28, 29, 30, 31, 32, 33, 35, 36, 37, 38, 39, 40, 41, 42, 43, 44, 45, 46, 47, 48, 50, 51, 52, 53, 54 and 55.

Diabrotica balteata = Diabrotica balteata (corn root worm) maize sprout test; type: in vivo; settings: 96 h, application rate of 200 ppm, maize sprouts, L2 larvae, 4 days after infestation, read-out: effect in at least one of the two categories (mortality or growth inhibition)
Protocol: Diabrotica balteata, (Corn Root Worm)
Maize sprouts, placed on an agar layer in 24-well microtiter plates were treated with aqueous test solutions prepared from 10'000 ppm DMSO stock solutions by spraying. After drying, the plates were infested with L2 larvae (6 to 10 per well). The samples were assessed for mortality and growth inhibition in comparison to untreated samples 4 days after infestation. The following compounds gave an effect of at least 80% in at least one of the two categories (mortality or growth inhibition) at an application rate of 200 ppm: 1, 3, 4, 5, 6, 7, 8, 9, 10, 11, 12, 14, 15, 16, 17, 18, 19, 20, 21, 22, 23, 24, 25, 26, 27, 28, 29, 30, 31, 32, 33, 35, 36, 37, 38, 39, 40, 41, 42, 43, 44, 45, 48, 50, 51, 52, 53, 54 and 55.

Thrips tabaci = Thrips tabaci (onion thrips) sunflower leaf disc test; type: in vivo; settings: foliar, 144 h, application rate of 200 ppm, sunflower leaf discs, mixed ages, 6 days after infestation
Protocol: Thrips tabaci (Onion thrips):
(§1) Sunflower leaf discs were placed on agar in 24-well microtiter plates and sprayed with aqueous test solutions prepared from 10'000 ppm DMSO stock solutions. After drying the leaf discs were infested with a thrips population of mixed ages. The samples were assessed for mortality 6 days after infestation.

Tetranychus urticae = Tetranychus urticae (two-spotted spider mite) bean leaf disc test; type: in vivo; settings: foliar, 192 h, application rate of 200 ppm, bean leaf discs, mixed population (mobile stages), 8 days after infestation
Protocol: Tetranychus urticae (Two-Spotted Spider Mite):
as §1, with “Bean” for “Sunflower”, “discs” for “discs were placed”, “were” for “and”, “mite” for “thrips”, “on mixed population (mobile stages) 8” for “6”

Euschistus heros = Euschistus heros (neotropical brown stink bug) soybean leaf test; type: in vivo; settings: 120 h, application rate of 200 ppm, soybean leaves, N2 nymphs, 5 days after infestation, read-out: effect in at least one of the two categories (mortality or growth inhibition)
Protocol: Euschistus heros (Neotropical Brown Stink Bug)
Soybean leaves on agar in 24-well microtiter plates were sprayed with aqueous test solutions prepared from 10'000 ppm DMSO stock solutions. After drying the leaves were infested with N2 nymphs. The samples were assessed for mortality and growth inhibition in comparison to untreated samples 5 days after infestation. The following compounds gave an effect of at least 80% in at least one of the two categories (mortality or growth inhibition) at an application rate of 200 ppm: 3, 4, 5, 6, 9, 10, 12, 14, 15, 16, 17, 18, 20, 24, 27, 28, 29, 31, 32, 33, 36, 37, 38, 42, 43, 45, 50, 52, 53, 54 and 55.

Structure (SMILES) | melting point | control (mortality, anti-feedant effect or growth inhibition) at 200 ppm (Spodoptera littoralis) | percent effect (mortality or growth inhibition) at 200 ppm (Plutella xylostella) | percent effect (mortality or growth inhibition) at 200 ppm (Diabrotica balteata) | mortality at 200 ppm (Thrips tabaci) | mortality at 200 ppm (Tetranychus urticae) | percent effect (mortality or growth inhibition) at 200 ppm (Euschistus heros)
Cn1nc(C(F)(F)C(F)(F)F)c(C(F)(F)F)c1-n1cc(-n2cc(C(=O)NC3CC3)c(C(F)(F)F)n2)cn1 [Compound 12] |  | ≥ 80% | ≥ 80% | ≥ 80% | ≥ 80% | ≥ 80% | ≥ 80%
CC(C)NC(=O)c1cc(-c2cnn(-c3c(C(F)(F)F)c(C(F)(F)C(F)(F)F)nn3C)c2)sc1Cl [Compound 17] |  | ≥ 80% | ≥ 80% | ≥ 80% | ≥ 80% | ≥ 80% | ≥ 80%
CCNC(=O)c1cc(-c2cnn(-c3c(C(F)(F)F)c(C(F)(F)C(F)(F)F)nn3C)c2)sc1Cl [Compound 20] |  | ≥ 80% | ≥ 80% | ≥ 80% | ≥ 80% | ≥ 80% | ≥ 80%
Cn1nc(C(F)(F)C(F)(F)F)c(C(F)(F)F)c1-n1cc(-c2cc(C(=O)NCC3CC3)c(Cl)s2)cn1 [Compound 27] |  | ≥ 80% | ≥ 80% | ≥ 80% | ≥ 80% | ≥ 80% | ≥ 80%
C=CCNC(=O)c1cc(-c2cnn(-c3c(C(F)(F)F)c(C(F)(F)C(F)(F)F)nn3C)c2)sc1Cl [Compound 29] |  | ≥ 80% | ≥ 80% | ≥ 80% | ≥ 80% | ≥ 80% | ≥ 80%
C=C(Cl)CNC(=O)c1cc(-c2cnn(-c3c(C(F)(F)F)c(C(F)(F)C(F)(F)F)nn3C)c2)sc1Cl [Compound 31] |  | ≥ 80% | ≥ 80% | ≥ 80% | ≥ 80% | ≥ 80% | ≥ 80%
Cn1nc(C(F)(F)C(F)(F)F)c(C(F)(F)F)c1-n1cc(-c2cc(C(=O)N[C@H]3C[C@@H]3C(F)(F)F)c(Cl)s2)cn1 [Compound 33] |  | ≥ 80% | ≥ 80% | ≥ 80% | ≥ 80% | ≥ 80% | ≥ 80%
Cn1nc(C(F)(F)C(F)(F)F)c(OC(F)F)c1-n1cc(-c2cc(C(=O)NC3CC3)c(Cl)s2)cn1 [Compound 37] |  | ≥ 80% | ≥ 80% | ≥ 80% | ≥ 80% | ≥ 80% | ≥ 80%
Cn1nc(C(F)(F)C(F)(F)F)c(OC(F)F)c1-n1cc(-c2cc(C(=O)NC3(C#N)CC3)c(Cl)s2)cn1 [Compound 38] |  | ≥ 80% | ≥ 80% | ≥ 80% | ≥ 80% | ≥ 80% | ≥ 80%
Cc1sc(-c2cnn(-c3c(C(F)(F)F)c(C(F)(F)C(F)(F)F)nn3C)c2)cc1C(=O)NC1(C#N)CC1 [Compound 42] |  | ≥ 80% | ≥ 80% | ≥ 80% | ≥ 80% | ≥ 80% | ≥ 80%
Cc1sc(-c2cnn(-c3c(C(F)(F)F)c(C(F)(F)C(F)(F)F)nn3C)c2)cc1C(=O)NC1CC1 [Compound 43] |  | ≥ 80% | ≥ 80% | ≥ 80% | ≥ 80% | ≥ 80% | ≥ 80%

Continued, in another order:

melting point | Structure (SMILES) | control (mortality, anti-feedant effect or growth inhibition) at 200 ppm (Spodoptera littoralis) | percent effect (mortality or growth inhibition) at 200 ppm (Plutella xylostella) | percent effect (mortality or growth inhibition) at 200 ppm (Diabrotica balteata) | mortality at 200 ppm (Thrips tabaci) | mortality at 200 ppm (Tetranychus urticae) | percent effect (mortality or growth inhibition) at 200 ppm (Euschistus heros)
190 to 191 °C | Cn1nc(C(F)(F)C(F)(F)F)c(C(F)(F)F)c1-n1cc(-n2cnc(C(=O)NC3CC3)c2)cn1 [Compound 49] |  |  |  |  |  | 
152 to 153 °C | COc1sc(-c2cnn(-c3c(C(F)(F)F)c(C(F)(F)C(F)(F)F)nn3C)c2)cc1C(=O)NC1CC1 [Compound 56] |  |  |  |  |  | 
192 to 193 °C | Cn1nc(C(F)(F)C(F)(F)F)c(C(F)(F)F)c1-n1cc(-c2cc(C(=O)NC3CC3)c(Br)s2)cn1 [Compound 57] |  |  |  |  |  | 
171 to 172 °C | Cn1nc(C(F)(F)C(F)(F)F)c(C(F)(F)F)c1-n1cc(-c2cc(C(=O)NC3CC3)c(C#N)s2)cn1 [Compound 59] |  |  |  |  |  | 
184 to 185 °C | Cn1nc(C(F)(F)C(F)(F)F)c(C(F)(F)F)c1-n1cc(-c2cc(C(=O)NC3(C#N)CC3)c(Br)s2)cn1 [Compound 61] |  |  |  |  |  | 
195 to 197 °C | Cn1nc(C(F)(F)C(F)(F)F)c(C(F)(F)F)c1-n1cc(-n2cnc(C(=O)NC3(C#N)CC3)c2)cn1 [Compound 62] |  |  |  |  |  | 
146 to 148 °C | Cn1nc(C(F)(F)C(F)(F)F)c(C(F)(F)F)c1-n1cc(-c2cc(C(=O)NC3CC3)sn2)cn1 [Compound 63] |  |  |  |  |  | 
158 to 159 °C | Cn1nc(C(F)(F)C(F)(F)F)c(C(F)(F)F)c1-n1cc(-c2cnc(C(=O)NC3(C#N)CC3)s2)cn1 [Compound 64] |  |  |  |  |  | 
132 to 133 °C | Cn1nc(C(F)(F)C(F)(F)F)c(C(F)(F)F)c1-n1cc(-c2cnc(C(=O)NC3CC3)s2)cn1 [Compound 65] |  |  |  |  |  | 
181 to 183 °C | Cn1nc(C(F)(F)C(F)(F)F)c(C(F)(F)F)c1-n1cc(-c2cc(C(=O)NC3CC3)no2)cn1 [Compound 66] |  |  |  |  |  | 
> 250 °C | Cn1nc(C(F)(F)C(F)(F)F)c(C(F)(F)F)c1-n1cc(-n2cc(C(=O)NC3(C#N)CC3)nn2)cn1 [Compound 67] |  |  |  |  |  | 
242 to 244 °C | Cn1nc(C(F)(F)C(F)(F)F)c(C(F)(F)F)c1-n1cc(-n2cc(C(=O)NC3CC3)nn2)cn1 [Compound 68] |  |  |  |  |  | 
